The source of these data is PMC9785202, “Changes in Disposition of Ezetimibe and Its Active Metabolites Induced by Impaired Hepatic Function: The Influence of Enzyme and Transporter Activities” (Pharmaceutics, 2022).

One series relates to rat primary hepatocytes. In words: Inhibition of EZE-Ph uptake into rat primary hepatocytes by bile acids and rifampicin. The conditions noted are these: inhibitor 200 µmol/L, 10 μM EZE-Ph, 10 min.
The target of another series is T1, OATP1B3 (Homo sapiens, UniProt Q9NPD5).
T1 sequence (Q9NPD5 1-702): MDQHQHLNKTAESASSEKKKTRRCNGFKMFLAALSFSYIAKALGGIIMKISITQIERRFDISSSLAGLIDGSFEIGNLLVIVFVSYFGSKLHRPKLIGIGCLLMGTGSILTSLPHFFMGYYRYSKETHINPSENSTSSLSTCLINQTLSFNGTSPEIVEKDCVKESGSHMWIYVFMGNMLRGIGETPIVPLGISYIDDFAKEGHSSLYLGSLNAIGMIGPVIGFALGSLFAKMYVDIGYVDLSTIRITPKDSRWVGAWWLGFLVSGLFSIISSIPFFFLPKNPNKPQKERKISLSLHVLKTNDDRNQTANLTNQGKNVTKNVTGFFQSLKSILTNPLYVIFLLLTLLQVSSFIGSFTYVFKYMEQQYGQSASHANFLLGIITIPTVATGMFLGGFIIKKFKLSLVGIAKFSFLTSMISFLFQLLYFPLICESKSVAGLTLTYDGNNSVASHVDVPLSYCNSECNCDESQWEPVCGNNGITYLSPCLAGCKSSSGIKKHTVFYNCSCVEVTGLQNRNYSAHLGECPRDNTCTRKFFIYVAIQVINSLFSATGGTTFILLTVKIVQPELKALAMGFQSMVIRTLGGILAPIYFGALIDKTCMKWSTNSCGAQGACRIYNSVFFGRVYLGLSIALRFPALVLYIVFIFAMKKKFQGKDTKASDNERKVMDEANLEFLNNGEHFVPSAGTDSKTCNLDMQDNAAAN
Briefly: Inhibition of OATP1B3-mediated uptake in OATP1B3-transfected HEK293 cells by bile acids and rifampicin.

Series [1] is described as follows: Pharmacokinetics after intravenous or oral administration of 10 mg/kg EZE to control and CCl4-induced rats. It counts as in vivo. The conditions noted are these: for AUC(0-t) / Cmax / Tmax / half-life: Sprague-Dawley, rat, plasma, 10 mg/kg. The protocol:
Animals were fasted for 12 h with free access to water before the experiments. EZE was administered orally (prepared in 0.5% carboxymethylcellulose sodium) or intravenously (dissolved in 10% dimethyl sulfoxide, 10% tween-80, and 80% sterile H2O) to CCl4-induced rats (n = 5) and control rats (n = 5) at 10 mg/kg. Blood samples were collected from the retro-orbital venous plexus before administration (0 h), at 5, 15, and 30 min, and at 1, 2, 4, 6, 8, 12, 24, and 48 h after administration in tubes containing EDTA-2K. Plasma samples were harvested by centrifugation at 11,600 g for 5 min at 4 °C and then stored at −80 °C until further analysis.
A 25.0 μL aliquot of each sample and 25.0 μL of internal standard (50.0 ng/mL EZE-d4) were mixed with 100 μL of acetonitrile. After the samples were vortexed and centrifugated at 2250 g for 15 min, the supernatants were used to measure EZE and its metabolites by LC-MS/MS.
WinNonlin version 6.1 (Pharsight Corp., Cary, NC, USA) was used to calculate the pharmacokinetic parameters in a non-compartmental model. Statistical comparisons between the two groups were evaluated using a Student’s two-tailed unpaired t-test or the nonparametric Mann–Whitney test in GraphPad Prism (version 8.0, GraphPad Software Inc, SanDiego, CA, USA). A value of p < 0.05 was considered significant. All data were presented as the mean ± S.D. (n ≥ 3).

The conditions of series [2]: for Autosampler stability (4°C, 24 h), RE / Post-extraction stability (room temperature 3 h), RE / Freeze-thaw stability (−20°C, three cycles), RE / Short-term stability (room temperature 3 h), RE: n = 6; for Freeze-thaw stability (−20°C, three cycles), RE / Short-term stability (room temperature 3 h), RE: rat plasma.
Series [3] in a line: CCl4-induced hepatic failure rat model: liver index and serum ALT, AST, AKP. Type of series: in vivo, Sprague–Dawley (SD) rats. The protocol: All animal studies were carried out according to the Guide for the Care and Use of Laboratory Animals of the Shanghai Institute of Materia Medica, Chinese Academy of Sciences. Male Sprague–Dawley (SD) rats weighing 180 to 220 g were randomized into two groups. The CCl4-induced model group was administered an intraperitoneal injection of CCl4 (20% in corn oil) at a dose of 2.5 mL/kg three times a week for 8 weeks. The control group was treated intraperitoneally with the same volume of corn oil at the same time intervals. Blood samples were collected and centrifuged at 11,600 g for 5 min to obtain serum samples for the determination of serum ALT, AST, and AKP.
Serum ALT, AST, and AKP were measured using the corresponding assay kits following the manufacturer’s instructions. Tissues fixed in 4% paraformaldehyde were embedded in paraffin, cut into slices with a 3 μm thickness, and stained with hematoxylin and eosin (H&E).

Substrate in series [4]: O=C(O)C1OC(Oc2ccc([C@@H]3[C@@H](CC[C@H](O)c4ccc(F)cc4)C(=O)N3c3ccc(F)cc3)cc2)C(O)C(O)C1O
Briefly: Uptake of EZE-Ph into OATP1B1-transfected HEK293 cells. It counts as in vitro ADME, human. The conditions noted are these: other: OATP1B1 HEK293, uptake time 5 min; 37.0 °C. The method, then:
The kinetic parameters and the half inhibitory concentration (IC50) were calculated using GraphPad Prism. […] The intrinsic clearance (CLint) was calculated as CLint = Vmax/Km.

Setting [5] is: iv, i.v. 10 mg/kg EZE, CCl4-induced rats.
Setting [6] is: iv, i.v. 10 mg/kg EZE, control rats.
Setting [7] is: po, p.o. 10 mg/kg EZE, CCl4-induced rats.
The mark [8] stands for this setting: po, p.o. 10 mg/kg EZE, control rats.
[9] abbreviates: oral administration of 10 mg/kg EZE.
The mark [10] stands for this setting: CCl4-induced rats vs control rats.
Setting [11] is: serum, CCl4-induced rats, n = 16.

Read-outs that look alike come from different tables or passages of the source. Marks after values point to notes of the source that are not given here.

Take `CO[C@H]1/C=C/O[C@@]2(C)Oc3c(C)c(O)c4c(O)c(c(/C=N/N5CCN(C)CC5)c(O)c4c3C2=O)NC(=O)/C(C)=C\C=C\[C@H](C)[C@H](O)[C@@H](C)[C@@H](O)[C@@H](C)[C@H](OC(C)=O)[C@@H]1C` [rifampicin, reference compound]: the “EZE-Ph uptake by rat hepatocytes in the presence of inhibitor” value with rat primary hepatocytes is reported as 12.0%. Further, the “uptake of estradiol-17β-glucuronide in OATP1B3-expressing HEK293 cells in the presence of inhibitor” value at OATP1B3 (inhibitor 200 μM, substrate estradiol-17β-glucuronide) is listed as 3.89%.

For the molecule `C[C@H](CCC(=O)NCCS(=O)(=O)O)[C@H]1CC[C@H]2[C@@H]3[C@@H](O)C[C@@H]4C[C@H](O)CC[C@]4(C)[C@H]3CC[C@]12C` [TUDCA, tauroursodeoxycholic acid], the IC50 on OATP1B3 is 26 µM.

`C[C@H](CCC(=O)O)[C@H]1CC[C@H]2[C@@H]3[C@@H](O)C[C@@H]4C[C@H](O)CC[C@]4(C)[C@H]3CC[C@]12C` [UDCA, ursodeoxycholic acid]: half-maximal inhibition against OATP1B3 (IC50) required 25.5 µM.

The molecule `CC(CCC(=O)NCC(=O)O)C1CCC2C3C(O)CC4CC(O)CCC4(C)C3CCC12C` (stereo not drawn) [GCDCA, glycochenodeoxycholic acid] showed an IC50 against OATP1B3 of 15.1 µM.

For the molecule `C[C@H](CCC(=O)O)[C@H]1CC[C@H]2[C@@H]3[C@H](O)C[C@@H]4C[C@H](O)CC[C@]4(C)[C@H]3C[C@H](O)[C@]12C` [CA, cholic acid], the IC50 on OATP1B3 was determined as 121 µM.

In the case of `O=C(O)[C@H]1O[C@@H](O[C@@H](CC[C@H]2C(=O)N(c3ccc(F)cc3)[C@@H]2c2ccc(O)cc2)c2ccc(F)cc2)[C@H](O)[C@@H](O)[C@@H]1O` [EZE-Hy, ezetimibe hydroxy β-D-glucuronide], in series [1] (setting [5]), the area under the curve AUC(0-t) came to 4250 ± 2050 ng·h/mL, the Cmax was determined as 146 ± 42 ng/mL, the Tmax was 11.2 ± 7.6 h and the half-life was 15.3 ± 2.4 h. For the same molecule, in series [1] (setting [6]), the AUC(0-t) is 992 ± 392 ng·h/mL, the Cmax amounted to 36.9 ± 9.6 ng/mL, the Tmax came to 16.8 ± 6.6 h and the half-life was 16.1 ± 7.6 h. Also, in series [1] (setting [7]), the AUC(0-t) stood at 1170 ± 418 ng·h/mL, the Cmax is 38.1 ± 10.1 ng/mL and the Tmax worked out at 14.4 ± 5.4 h. Further, in series [1] (setting [8]), the AUC(0-t) is 463 ± 160 ng·h/mL, the Cmax was found to be 24.6 ± 9.9 ng/mL and the Tmax is 12 h. Further, in series [1] (intravenous injection of 10 mg/kg EZE), the “AUC0–t, fold higher in CCl4-induced rats than in control rats” value is 4.3 fold. In addition, in series [1] (setting [9]), the “AUC0–t, fold higher in CCl4-induced rats than in control rats” value was 2.5 fold and the “share in plasma relative to the main circulating component EZE-Ph” value turned out to be 11%. In series [2] (HQC (800/2400/800 ng/ml)), the “Autosampler stability (4°C, 24 h), RE” value is given as 9.0%; the “Post-extraction stability (room temperature 3 h), RE” value came to 5.2%; the “Freeze-thaw stability (−20°C, three cycles), RE” value was found to be 2.0%; the “Short-term stability (room temperature 3 h), RE” value is recorded as -3.6%. For the same molecule, in series [2] (LQC (3.00/9.00/3.00 ng/ml)), the “Autosampler stability (4°C, 24 h), RE” value stood at 7.9%; the “Post-extraction stability (room temperature 3 h), RE” value is 8.9%; the “Freeze-thaw stability (−20°C, three cycles), RE” value was -0.1%. Also, the “stability in rat plasma under the test conditions” value in series [2] (LQC and HQC samples, short-term, post-extraction, auto-sampler, three freeze/thaw cycles) was “stable”. Also, the “Short-term stability (room temperature 3 h), RE” value in series [2] (LQC (EZE/EZE-Ph/EZE-Hy 3.00/9.00/3.00 ng/ml)) was -6.9%. Besides, in series [2] (room temperature for 2 h), the stability in blood result is “stable”.

`C[C@H](CCC(=O)NCC(=O)O)[C@H]1CC[C@H]2[C@@H]3[C@@H](O)C[C@@H]4C[C@H](O)CC[C@]4(C)[C@H]3CC[C@]12C` [GUDCA, glycoursodeoxycholic acid] came in with an IC50 against OATP1B3 of 46.1 µM.

For the molecule `ClC(Cl)(Cl)Cl` [CCl4, Carbon tetrachloride], in series [3] (setting [10]), the “serum AKP, fold higher than in control rats” value is 3.86 fold; the “serum ALT, fold higher than in control rats” value came out at 8.62 fold; the “serum AST, fold higher than in control rats” value is recorded as 5.76 fold. In addition, the Liver weight/body weight in series [3] (CCl4-induced rats, 8 weeks of treatment, n = 16) is reported as 37.9 ± 5.9 ^c. Besides, in series [3] (setting [11]), the AKP is listed as 9887 ± 1633 ^d U/L, the ALT is 112 ± 33 ^d U/L and the AST is 125 ± 34 ^d U/L.

With `C[C@H](CCC(=O)O)[C@H]1CC[C@H]2[C@@H]3[C@H](O)C[C@@H]4C[C@H](O)CC[C@]4(C)[C@H]3CC[C@]12C` [CDCA, chenodeoxycholic acid], on OATP1B3, the IC50 worked out at 8.92 µM.

B1: OATP1B1 (Homo sapiens) (protein)
chain: MDQNQHLNKTAEAQPSENKKTRYCNGLKMFLAALSLSFIAKTLGAIIMKSSIIHIERRFEISSSLVGFIDGSFEIGNLLVIVFVSYFGSKLHRPKLIGIGCFIMGIGGVLTALPHFFMGYYRYSKETNINSSENSTSTLSTCLINQILSLNRASPEIVGKGCLKESGSYMWIYVFMGNMLRGIGETPIVPLGLSYIDDFAKEGHSSLYLGILNAIAMIGPIIGFTLGSLFSKMYVDIGYVDLSTIRITPTDSRWVGAWWLNFLVSGLFSIISSIPFFFLPQTPNKPQKERKASLSLHVLETNDEKDQTANLTNQGKNITKNVTGFFQSFKSILTNPLYVMFVLLTLLQVSSYIGAFTYVFKYVEQQYGQPSSKANILLGVITIPIFASGMFLGGYIIKKFKLNTVGIAKFSCFTAVMSLSFYLLYFFILCENKSVAGLTMTYDGNNPVTSHRDVPLSYCNSDCNCDESQWEPVCGNNGITYISPCLAGCKSSSGNKKPIVFYNCSCLEVTGLQNRNYSAHLGECPRDDACTRKFYFFVAIQVLNLFFSALGGTSHVMLIVKIVQPELKSLALGFHSMVIRALGGILAPIYFGALIDTTCIKWSTNNCGTRGSCRTYNSTSFSRVYLGLSSMLRVSSLVLYIILIYAMKKKYQEKDINASENGSVMDEANLESLNKNKHFVPSAGADSETHC
notes: host or cells: HEK293
B1: in series [4], the Km was found to be 91.5 µM, the maximal velocity (Vmax) was found to be 5.17e-05 µmol/min/mg and the Vmax/Km amounted to 0.56 µL/min/mg.

In general, IC50 refers to the concentration that inhibits the measured activity by half. In general, AUC(0-t) refers to exposure summed from dosing to a finite time, without extrapolation to infinity. Read a low AUC(0-t) as less exposure. As a reminder, the Cmax is the highest concentration seen after dosing. The Tmax is the time from dosing to the highest level. The term half-life denotes how long it takes for the measured level to halve. What is called Km is the substrate concentration at which the rate is half of its maximum. The term Vmax denotes the rate approached at saturating substrate.
